Assay results taken from US9637469B2, “Pyridine derivative” (Teijin Pharma Limited, priority 2012, dated 2017).

Target: T1, human URAT1 (Homo sapiens, UniProt Q96S37)
T1 construct: Full-length cDNA of human URAT1 (hURAT1)
T1 sequence (Q96S37 1-553): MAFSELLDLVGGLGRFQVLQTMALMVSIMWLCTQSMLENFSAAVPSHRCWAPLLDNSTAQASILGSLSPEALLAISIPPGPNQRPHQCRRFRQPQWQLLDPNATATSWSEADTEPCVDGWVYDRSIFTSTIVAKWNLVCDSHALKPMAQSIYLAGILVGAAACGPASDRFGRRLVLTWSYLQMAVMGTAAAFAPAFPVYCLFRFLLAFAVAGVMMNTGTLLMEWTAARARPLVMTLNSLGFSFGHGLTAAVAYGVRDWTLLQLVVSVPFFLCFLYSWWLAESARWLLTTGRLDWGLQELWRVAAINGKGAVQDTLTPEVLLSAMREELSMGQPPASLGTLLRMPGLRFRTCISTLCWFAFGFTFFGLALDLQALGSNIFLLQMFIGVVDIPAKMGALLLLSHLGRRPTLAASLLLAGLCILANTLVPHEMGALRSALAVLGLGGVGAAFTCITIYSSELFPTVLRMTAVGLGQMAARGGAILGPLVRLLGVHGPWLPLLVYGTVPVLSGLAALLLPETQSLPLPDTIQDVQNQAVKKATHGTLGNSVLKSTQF
Assay: Test for inhibition of uric acid transport using human URAT1-expressing cells;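 note: three stars up to 0.2 µM two stars 0.2-2 µM one star 2-20 µM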
Assay type: cell-based
Conditions: HEK 293 cells expressing human URAT1, 14C-labeled uric acid 25 μM, uptake 37° C. for 5 min; for IC50: read-out: Inhibitory Activity (IC50 of uric acid transport inhibition)
Method in brief: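 HEK293 cells stably transfected with full-length hURAT1, preincubated 10 min at 37 °C in HBSS with NaCl replaced by Na gluconate. Uptake of 25 μM ¹⁴C-uric acid with compound ran 5 min at 37 °C, then scintillation counting. IC50 derived from % of DMSO-control URAT1-specific uptake.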

SMILES	Inhibitory Activity (IC50 of uric acid transport inhibition)	IC50
O=C(O)C1(Sc2cnc(-c3cncc(Cl)c3)n2Cc2cc(Cl)ccc2Cl)CCC1 [Compound A263, 1-((2-(5-chloropyridin-3-yl)-1-(2,5-dichlorobenzyl)-1H-imidazol-5-yl)thio)cyclobutanecarboxylic acid]	* *	–
CC(C)(Sc1ncc(-c2cncc(F)c2)n1Cc1cc(Cl)ccc1Cl)C(=O)O [Compound A265]	–	2 to 20 µM
O=C(O)c1cnc(-c2cccnc2)n1Cc1cccc2ccccc12 [Compound A12]	–	2 to 20 µM
O=C(O)c1ccc(-c2cccnc2)n1Cc1cccc2cccnc12 [Compound B19, 2-(pyridin-3-yl)-1-(quinolin-8-ylmethyl)-1H-pyrrole-5-carboxylic acid]	* *	–
Cc1nc(-c2cccnc2)n(Cc2ccc(Br)cc2)c1C(=O)O [Compound A56]	–	2 to 20 µM
Cc1nc(Oc2cncc(Br)c2)n(Cc2cc(Cl)ccc2Cl)c1C(=O)O [Compound A251, 2-((5-bromopyridin-3-yl)oxy)-1-(2,5-dichlorobenzyl)-4-methyl-1H-imidazole-5-carboxylic acid]	* * *	–
Cc1nc(-c2cncc(N3CCCC3)c2)n(Cc2cc(Cl)ccc2Cl)c1C(=O)O [Compound A166, 1-(2,5-dichlorobenzyl)-4-methyl-2-(5-(pyrrolidin-1-yl)pyridin-3-yl)-1H-imidazole-5-carboxylic acid]	* * *	–
Cc1ccc2ccccc2c1Cn1c(C(=O)O)ccc1-c1cccnc1 [Compound B4, 1-((2-methylnaphthalen-1-yl)methyl)-2-(pyridin-3-yl)-1H-pyrrole-5-carboxylic acid]	* *	–
O=C(O)c1c(-c2cccc(F)c2)nc(-c2cccnc2)n1Cc1cc(Cl)ccc1Cl [Compound A92, 1-(2,5-dichlorobenzyl)-4-(3-fluorophenyl)-2-(pyridin-3-yl)-1H-imidazole-5-carboxylic acid]	* * *	–
O=C(O)c1c(CN2CCC(O)CC2)nc(-c2cncc(Cl)c2)n1Cc1cc(Cl)ccc1Cl [Compound A198]	–	2 to 20 µM
O=C(O)c1c(C(F)(F)F)nc(-c2cccnc2)n1Cc1cccc2ccsc12 [Compound A84, 1-(benzo[b]thiophen-7-ylmethyl)-2-(pyridin-3-yl)-4-(trifluoromethyl)-1H-imidazole-5-carboxylic acid]	* *	–
Cc1nc(-c2cccnc2)n(Cc2ccccc2Br)c1C(=O)O [Compound A54, 1-(2-bromobenzyl)-4-methyl-2-(pyridin-3-yl)-1H-imidazole-5-carboxylic acid]	* *	–
O=C(O)c1cnc(-c2cncc(F)c2)n1Cc1cc(Cl)ccc1Cl [Compound A171, 1-(2,5-dichlorobenzyl)-2-(5-fluoropyridin-3-yl)-1H-imidazole-5-carboxylic acid]	* * *	–
CC(C)c1nc(-c2cncc(F)c2)n(Cc2cccc3ccccc23)c1C(=O)O [Compound A152, 2-(5-fluoropyridin-3-yl)-4-isopropyl-1-(naphthalen-1-ylmethyl)-1H-imidazole-5-carboxylic acid]	* *	–
COc1cccc(-c2nc(C)c(C(=O)O)n2Cc2cc(Cl)ccc2Cl)n1 [Compound A246, 1-(2,5-dichlorobenzyl)-2-(6-methoxypyridin-2-yl)-4-methyl-1H-imidazole-5-carboxylic acid]	* *	–
Cc1nc(-c2cncc(Cl)c2)n(Cc2cc(C(F)(F)F)ccc2C(F)(F)F)c1C(=O)O [Compound A173, 1-(2,5-bis(trifluoromethyl)benzyl)-2-(5-chloropyridin-3-yl)-4-methyl-1H-imidazole-5-carboxylic acid]	* * *	–
Cc1ccncc1Oc1nc(C)c(C(=O)O)n1Cc1cc(Cl)ccc1Cl [Compound A256, 1-(2,5-dichlorobenzyl)-4-methyl-2-((4-methylpyridin-3-yl)oxy)-1H-imidazole-5-carboxylic acid]	* * *	–
Cc1cccc(Cn2c(-c3cccnc3)nc(C)c2C(=O)O)c1 [Compound A58]	–	2 to 20 µM

SMILES	Inhibitory Activity (IC50 of uric acid transport inhibition)	IC50
Cc1nc(-c2cccnc2)n(Cc2ccc(F)cc2Cl)c1C(=O)O [Compound A73]	–	2 to 20 µM
Cc1ccc(Cn2c(-c3cccnc3)nc(C(C)C)c2C(=O)O)c2ccccc12 [Compound A25, 4-isopropyl-1-((4-methylnaphthalen-1-yl)methyl)-2-(pyridin-3-yl)-1H-imidazole-5-carboxylic acid]	* * *	–
O=C(NS(=O)(=O)C1CC1)c1ccc(-c2cncc(F)c2)n1Cc1cc(Cl)ccc1Cl [Compound B27, N-(cyclopropylsulfonyl)-1-(2,5-dichlorobenzyl)-2-(5-fluoropyridin-3-yl)-1H-pyrrole-5-carboxamide]	* * *	–
Cc1nc(-c2cccnc2)n(Cc2cc(Cl)ccc2Cl)c1C(=O)NS(=O)(=O)C1CC1 [Compound A112]	–	2 to 20 µM
Cc1nc(-c2cccnc2)n(Cc2cccc(C(F)(F)F)c2)c1C(=O)O [Compound A61]	–	2 to 20 µM
O=C(O)c1c(Cl)nc(-c2cccnc2)n1Cc1cccc2ccccc12 [Compound A9, 4-chloro-1-(napthalen-1-ylmethyl)-2-(pyridin-3-yl)-1H-imidazole-5-carboxylic acid]	* *	–
CC(C)(Sc1cnc(-c2cccnc2)n1Cc1cc(Cl)ccc1Cl)C(=O)O [Compound A261]	–	2 to 20 µM
Cc1nc(-c2cccnc2)n(C(C)c2cc(Cl)ccc2Cl)c1C(=O)O (stereo not drawn) [Compound A87]	–	2 to 20 µM
O=C(NS(=O)(=O)C1CC1)c1ccc(-c2cncc(Cl)c2)n1Cc1cc(Cl)ccc1Cl [Compound B30, 2-(5-chloropyridin-3-yl)-N-(cyclopropylsulfonyl)-1-(2,5-dichlorobenzyl)-1H-pyrrole-5-carboxamide]	* * *	–
Cc1nc(-c2cncc(Br)c2)n(Cc2cc(Cl)ccc2Cl)c1C(=O)O [Compound A177, 2-(5-bromopyridin-3-yl)-1-(2,5-dichlorobenzyl)-4-methyl-1H-imidazole-5-carboxylic acid]	* * *	–
Cc1nc(-c2cccnc2)n(Cc2cccc(Cl)c2Cl)c1C(=O)O [Compound A70, 1-(2,3-dichlorobenzyl)-4-methyl-2-(pyridin-3-yl)-1H-imidazole-5-carboxylic acid]	* *	–
Cc1nc(Oc2cccnc2)n(Cc2cc(Cl)ccc2Cl)c1C(=O)O [Compound A248, 1-(2,5-dichlorobenzyl)-4-methyl-2-(pyridin-3-yloxy)-1H-imidazole-5-carboxylic acid]	* * *	–
O=C1OCc2nc(-c3cncc(Cl)c3)n(Cc3cc(Cl)ccc3Cl)c21 [Compound A221, 2-(5-chloropyridin-3-yl)-1-(2,5-dichlorobenzyl)-1H-furo[3,4-d]imidazol-6(4H)-one]	* * *	–
Cc1cncc(-c2ccc(C(=O)O)n2Cc2cccc3ccsc23)c1 [Compound B21, 1-(benzo[b]thiophen-7-ylmethyl)-2-(5-methylpyridin-3-yl)-1H-pyrrole-5-carboxylic acid]	* * *	–
Cc1nc(-c2cncc(C#N)c2)n(Cc2cc(Cl)ccc2Cl)c1C(=O)O [Compound A158, 2-(5-cyanopyridin-3-yl)-1-(2,5-dichlorobenzyl)-4-methyl-1H-imidazole-5-carboxylic acid]	* *	–
CCCOc1cncc(-c2nc(C)c(C(=O)O)n2Cc2cc(Cl)ccc2Cl)c1 [Compound A185, 1-(2,5-dichlorobenzyl)-4-methyl-2-(5-propoxypyridin-3-yl)-1H-imidazole-5-carboxylic acid]	* * *	–
Cc1nc(-c2ccnc(Cl)c2)n(Cc2cccc3ccccc23)c1C(=O)O [Compound A242]	–	2 to 20 µM
Cc1nc(-c2cncc(F)c2)n(Cc2cc(Cl)sc2Cl)c1C(=O)O [Compound A225, 1-((2,5-dichlorothiophen-3-yl)methyl)-2-(5-fluoropyridin-3-yl)-4-methyl-1H-imidazole-5-carboxylic acid]	* * *	–
